Reference: patent US20220323402A1, “TREATMENT, AMELIORATION OR PREVENTION OF A VIRAL INFECTION” (priority 2019, published 2022)

Tests used:
Cell cultures = assay: Cell viability by MTT assay; assay type: cell-based; conditions: at the concentrations tested; FIGS. 9A-9B
Procedure: FIGS. 9A and 9B: Toxicity of I3S and CH223191. Cell viability after treatment for 24 h with different concentrations of I3S (FIG. 9A) and CH223191 (FIG. 9B) evaluated by MTT assay.
Cell cultures grown in 96-well plates were exposed for 48 h to serial two-fold compound dilutions, three wells for each concentration and viability was measured with 3-(4,5-dimethylthiazol-2-yl)-2,5-diphenyl tetrazolium bromide (MTT, Sigma-Aldrich).

AHR = AHR modulation in NPCs, qPCR of AHR, CYP1A1, IDO1 and TDO2; assay type: cell-based, human; conditions: at the concentrations tested; NPCs 24 h; FIGS. 10A-10D
Procedure: FIGS. 10A-10D: AHR modulation in NPCs. NPCs were treated with I3S or a combination of I3S and CH223191. 24 h after treatment, NPCs were harvested for RNA extraction followed by qPCR analysis of AHR (FIG. 10A), CYP1A1 (FIG. 10B), IDO1 (FIG. 100) and TDO2 (FIG. 10D). Data represent the mean+s.e.m. from three independent experiments. P values were determined by Student's t-test.
RNA was extracted using the RNAeasy kit (Qiagen). cDNA was synthesized using the High-Capacity cDNA Reverse Transcription kit (Applied Biosystems) and qPCR was performed using TaqMan Fast Advanced Master Mix (Applied Biosystems). Gene expression was normalized to GAPDH. Primers and probes (Applied Biosystems) were: GAPDH Hs02786624_g1, IFNB1 Hs01077958_s1, AHR Hs00169233_m1, PML Hs00971694_m1, CYP1A1 Hs01054796_g1, IFITM1 Hs00705137_s1, CYP1B1 Hs02382916_s1, CXCL10 Hs00171042_m1, IDO1 Hs00984148_m1, IDO2 Hs01589373_m1, IFITM Hs00705137_s1, TDO Hs00194611_m1. Primers and probes for the specific detection of Zika virus RNA were utilized as previously described^81, 82. For viral load determination in vivo, brains and spleens from pups were macerated on trizol (Invitrogen) for RNA extraction. RNA pellets were resuspended in RNase-free water and quantified by spectrophotometry (NanoDrop—Thermo Scientific) and stored at −80° C. […] Quantification was compared with threshold cycle (Ct) value with a ZIKV plasmid standard curve.

ZIKV = assay: qPCR of ZIKV RNA in HepG2 cells treated before, during or after infection (viral entry step); assay type: cell-based, Zika virus; conditions: HepG2, moi=3, pretreatment, adsorption or internalization, qPCR 2 hours after infection; FIG. 17
Procedure: FIG. 17: Q-PCR quantification of ZIKV RNA in HepG2 cells treated with CH223191 or DMSO (vehicle) before infection, during infection, or after the infection with ZIKV (moi=3). 2 h p.i., cells were harvested for RNA extraction and qPCR analysis to determine the level of ZIKV RNA. Data represent the mean+s.e.m. from three independent experiments. P values were determined by Student's t-test.
To investigate whether AHR inhibition interferes with the viral entry step, we treated HepG2 cells with CH223191 at different early time points of ZIKV infection (pretreatment before viral entry, during viral adsorption and during virus internalization) and quantified ZIKV by qPCR 2 hours after infection. We detected no effect of CH223191 at these early timepoints during ZIKV infection as determined by qPCR, showing that AHR contributes to later stages of ZIKV replication (FIG. 17).
RNA was extracted using the RNAeasy kit (Qiagen). cDNA was synthesized using the High-Capacity cDNA Reverse Transcription kit (Applied Biosystems) and qPCR was performed using TaqMan Fast Advanced Master Mix (Applied Biosystems). Gene expression was normalized to GAPDH. […] RNA pellets were resuspended in RNase-free water and quantified by spectrophotometry (NanoDrop—Thermo Scientific) and stored at −80° C. […] Quantification was compared with threshold cycle (Ct) value with a ZIKV plasmid standard curve.

Pml promoter = assay: PML promoter Gaussia Luciferase reporter assay in HEK-293 cells; assay type: cell-based, human; conditions: HEK-293, 24 h post transfection; FIG. 28
Procedure: FIG. 28: Luciferase assay using a construct coding for the PML promoter cloned upstream of the reporter gene Gaussia Luciferase. HEK-293 cells were pre-treated with CH223191 and transfected with plasmids as indicated. 24 h post transfection, cells were harvested for quantification of Gaussia Luciferase and TK-Renilla activity. Data represent the mean+s.e.m. from three independent experiments. P values were determined by a one-way ANOVA followed by Tukey's post-hoc test.
PML shRNA plasmid (sc-36284-SH) was obtained from Santa Cruz Biotechnology. Transfection of HeLa cells was performed using Lipofectamine 2000 (Thermo Fisher) according to manufacturer's instructions. The plasmid encoding for the promoter region of PML, placed upstream of the Gaussia Luciferase (GLuc) reporter gene, was obtained from Genecopoeia. For the luciferase assay, HEK-293 cells were grown in 96 well-plates and transfected using Fugene-HD Transfection Reagent (Roche). Plasmids used for transfection in each condition are indicated in the experiment. 24 h later, pGudluc activity was analyzed using BioLux Gaussia Luciferase Assay Kit (New England Biolabs) and normalized to TK-Renilla luciferase activity, measured using the Renilla Luciferase Assay System (Promega).

[1] = test system: DENV-1, DENV-2, DENV-3, DENV-4; assay: DENV plaque assay of supernatants of A549 cells; assay type: cell-based, dengue virus; conditions: A549 pre-treated, moi=0.1, 24 h p.i.; FIGS. 63A-63D
Procedure: FIG. 62: AHR activation boosts DENV replication. A549 cells were pretreated with the indicated concentrations of I3S for 24 h and infected with DENV-2 (moi=0.1). 48 h p.i. supernatants were harvested for plaque assay.
FIGS. 63A-63D: AHR modulation affects DENV replication. Infectious virus particles in the supernatants of A549 cells pre-treated with CH2213191 and infected with DENV-1 (FIG. 63A), DENV-2 (FIG. 63B), DENV-3 (FIG. 63C) or DENV-4 (FIG. 63D) (moi=0.1). At 24 h p.i. supernatants were harvested for plaque assay.

DENV-2 = assay: DENV viral RNA (qPCR) and viral protein (immunofluorescence) in A549 cells; assay type: cell-based, dengue virus; conditions: FIGS. 64A-64B and 65A-65C
Source text: FIGS. 64A and 64B: A549 cells positive for Flavivirus antigen determined by immunofluorescence. Cells infected with DENV-2 from FIG. 63C were fixed, stained against Flavivirus envelope protein and visualized under a fluorescence microscope (FIG. 64A). Images of random fields of view were acquired and the number of cells positive for Flavivirus antigen was counted using FIJI (FIG. 64B).
FIGS. 65A-65C: RNA expression of DENV-2 (FIG. 65A), AHR (FIG. 65B) and CYP1A1 (FIG. 65C) determined by qPCR. A549 cells were infected with DENV-2 (moi=0.1) and 48 h p.i. they were harvested for qPCR analysis.

## Cc1ccccc1/N=N/c1ccc(NC(=O)c2ccnn2C)c(C)c1 [CH223191, 2-Methyl-2H-pyrazole-3-carboxylic Acid (2-methyl-4-o-tolylazo-phenyl)-amide]
Cell cultures
  cytotoxic effects: no cytotoxic effects were detected
AHR
  AHR inhibition / activation: significant AHR inhibition
ZIKV
  effect on ZIKV RNA at early timepoints of infection: no effect
Pml promoter
  Pml promoter transactivation by NF-κB in presence of co-expressed AHR: rescued
[1]
  replication of the four DENV serotypes: reduced
DENV-2
  DENV viral RNA and viral protein expression levels: inhibition
